Experiments:
[1] = target: T1, IRAK1 (Homo sapiens, UniProt P51617); experiment: IRAK1 enzymatic assay (ADP-Glo luminescence); format: biochemical; settings: purified human recombinant His-TEV-IRAK1 (194-712)
T1 construct: His-TEV-IRAK1 (194-712); His (N); TEV cleavage site (N)
Outline: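 Luminescent ADP-Glo read-out of ATP turnover by purified His-TEV-IRAK1 (194-712) at 0.3 μg/ml after a 2-hour RT reaction. Compounds, serially diluted from 10 μM to 0.5 nM, were preincubated with enzyme 15 minutes in Hepes pH 7.0 buffer with MgCl2, DTT, EGTA and Triton X-100.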

[2] = target: T2, IRAK4 (Homo sapiens, UniProt Q9NWZ3); experiment: IRAK4 enzymatic assay (ADP-Glo luminescence); format: biochemical; settings: purified human recombinant His-TEV-IRAK4 (1-460), ATP 2 μM
T2 construct: His-TEV-IRAK4 (1-460); His (N); TEV cleavage site (N)
T2 sequence (Q9NWZ3 1-460): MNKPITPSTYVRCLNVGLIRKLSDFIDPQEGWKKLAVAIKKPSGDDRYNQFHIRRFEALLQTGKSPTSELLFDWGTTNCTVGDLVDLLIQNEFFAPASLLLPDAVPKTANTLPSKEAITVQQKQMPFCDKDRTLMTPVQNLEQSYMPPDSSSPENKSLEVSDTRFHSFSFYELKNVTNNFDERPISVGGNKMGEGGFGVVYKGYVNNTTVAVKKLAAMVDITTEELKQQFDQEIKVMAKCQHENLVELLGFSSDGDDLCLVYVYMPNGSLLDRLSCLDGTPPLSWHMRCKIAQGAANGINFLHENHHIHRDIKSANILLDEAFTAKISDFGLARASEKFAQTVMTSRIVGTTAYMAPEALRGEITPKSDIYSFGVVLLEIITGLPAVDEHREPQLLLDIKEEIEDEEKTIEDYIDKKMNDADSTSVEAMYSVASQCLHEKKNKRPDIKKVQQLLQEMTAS
Outline: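 ADP-Glo luminescence read-out after a 2 h RT kinase reaction with 2 μM ATP and 300 nM biotinylated STK1 peptide. Enzyme (His-TEV-IRAK4 1-460, 0.3 μg/ml) first incubated 15 min with serially diluted compounds (10 μM–0.5 nM) in 50 mM Hepes pH 7.0, 10 mM MgCl2, 5 mM MnCl2.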

T1 sequence (P51617 194-712): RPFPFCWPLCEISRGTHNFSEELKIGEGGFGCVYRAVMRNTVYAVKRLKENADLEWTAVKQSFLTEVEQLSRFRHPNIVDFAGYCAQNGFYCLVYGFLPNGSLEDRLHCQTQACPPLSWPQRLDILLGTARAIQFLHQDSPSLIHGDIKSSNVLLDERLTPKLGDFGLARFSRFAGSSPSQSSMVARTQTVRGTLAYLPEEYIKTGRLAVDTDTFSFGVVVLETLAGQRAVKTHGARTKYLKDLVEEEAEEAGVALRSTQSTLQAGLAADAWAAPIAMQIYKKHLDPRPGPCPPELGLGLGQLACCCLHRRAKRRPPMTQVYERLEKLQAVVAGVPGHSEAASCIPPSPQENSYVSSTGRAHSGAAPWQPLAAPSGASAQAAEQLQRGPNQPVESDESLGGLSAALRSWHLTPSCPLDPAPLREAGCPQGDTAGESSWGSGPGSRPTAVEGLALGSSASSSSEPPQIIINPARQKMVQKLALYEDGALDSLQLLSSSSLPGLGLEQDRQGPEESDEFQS

SMILES	IC50 [1]	IC50 [2]
CC1(C)CN(c2ccc3c(c2)[nH]/c(=N\C(=O)c2cccc(C(F)F)c2)n3CCCO)C(=O)O1 [Example 200, (E)-3-(difluoromethyl)-N-(5-(5,5-dimethyl-2-oxooxazolidin-3-yl)-1-(3-hydroxypropyl)-1H-benzo[d]imidazol-2(3H)-ylidene)benzamide]	100 to 1000 nM	≤ 100 nM
O=C(/N=c1\[nH]c2cc(N3CCOCC3=O)ccc2n1CCCO)c1cccc(C(F)(F)F)n1 [Compound 84, (E)-N-(1-(3-hydroxypropyl)-5-(3-oxomorpholino)-1H-benzo[d]imidazol-2(3H)-ylidene)-6-(trifluoromethyl)picolinamide]	> 1000 nM	100 to 1000 nM
O=C(/N=c1\[nH]c2cc(N3CCOCC3=O)c(Br)cc2n1CCCO)c1cccc(C(F)(F)F)c1 [Compound 50, (E)-N-(6-bromo-1-(3-hydroxypropyl)-5-(3-oxomorpholino)-1H-benzo[d]imidazol-2(3H)-ylidene)-3-(trifluoromethyl)benzamide]	100 to 1000 nM	≤ 100 nM
CSCCCn1/c(=N/C(=O)c2cccc(C(F)F)c2)[nH]c2cc(N3CCOCC3=O)ccc21 [Compound 92, (E)-3-(difluoromethyl)-N-(1-(3-(methylthio)propyl)-5-(3-oxomorpholino)-1H-benzo[d]imidazol-2(3H)-ylidene)benzamide]	100 to 1000 nM	≤ 100 nM
O=C(/C=C1\Nc2cc(N3CCOCC3=O)ccc2N1CCCO)c1cccc(Br)n1 [Compound 148, (E)-4-(2-(2-(6-bromopyridin-2-yl)-2-oxoethylidene)-1-(3-hydroxypropyl)-2,3-dihydro-1H-benzo[d]imidazol-5-yl)morpholin-3-one]	100 to 1000 nM	≤ 100 nM
N#Cc1cccc(C(=O)/N=c2\[nH]c3cc(N4CCOCC4=O)ccc3n2CCCO)c1 [Compound 3, (E)-3-cyano-N-(1-(3-hydroxypropyl)-5-(3-oxomorpholino)-1H-benzo[d]imidazol-2(3H)-ylidene)benzamide]	100 to 1000 nM	≤ 100 nM
O=C(/N=c1\[nH]c2cc(N3CCCOC3=O)ccc2n1CC1CCOCC1)c1cccc(C(F)(F)F)c1 [Compound 155, (E)-N-(5-(2-oxo-1,3-oxazinan-3-yl)-1-((tetrahydro-2H-pyran-4-yl)methyl)-1H-benzo[d]imidazol-2(3H)-ylidene)-3-(trifluoromethyl)benzamide]	100 to 1000 nM	≤ 100 nM
CN1CCC(n2/c(=N/C(=O)c3cccc(C(F)F)c3)[nH]c3cc(N4CCOCC4=O)ccc32)CC1 [Compound 165, (E)-3-(difluoromethyl)-N-(1-(1-methylpiperidin-4-yl)-5-(3-oxomorpholino)-1H-benzo[d]imidazol-2(3H)-ylidene)benzamide]	100 to 1000 nM	100 to 1000 nM
O=C(/N=c1\[nH]c2cc(-n3ccccc3=O)ccc2n1CCCO)c1cccc(C(F)F)c1 [Example 194, (E)-3-(difluoromethyl)-N-(1-(3-hydroxypropyl)-5-(2-oxopyridin-1(2H)-yl)-1H-benzo[d]imidazol-2(3H)-ylidene)benzamide]	100 to 1000 nM	≤ 100 nM
CS(=O)(=O)c1cccc(C(=O)/N=c2\[nH]c3cc(N4CCOCC4=O)ccc3n2CCCO)c1 [Compound 82, (E)-N-(1-(3-hydroxypropyl)-5-(3-oxomorpholino)-1H-benzo[d]imidazol-2(3H)-ylidene)-3-(methylsulfonyl)benzamide]	100 to 1000 nM	≤ 100 nM
O=C(/N=c1\[nH]c2cc(N3CCOCC3=O)ccc2n1[C@H]1CCCC[C@H]1CO)c1cccc(C(F)(F)F)c1 (racemic) [Compound 116, rac-(E)-N-(1-((1S,2R)-2-(hydroxymethyl)cyclohexyl)-5-(3-oxomorpholino)-1H-benzo[d]imidazol-2(3H)-ylidene)-3-(trifluoromethyl)benzamide]	> 1000 nM	100 to 1000 nM
[2H]C([2H])([2H])Oc1cc2c(cc1N1CCCOC1=O)[nH]/c(=N\C(=O)c1cccc(C(F)F)c1)n2CCCO [Example 205, (E)-3-(difluoromethyl)-N-(1-(3-hydroxypropyl)-6-(trideuteromethoxy)-5-(2-oxo-1,3-oxazinan-3-yl)-1H-benzo[d]imidazol-2(3H)-ylidene)benzamide]	≤ 100 nM	≤ 100 nM
O=C(/N=c1\[nH]c2cc(N3CCOCC3=O)ccc2n1CCCO)c1cccc(F)c1 [Compound 35, (E)-3-fluoro-N-(1-(3-hydroxypropyl)-5-(3-oxomorpholino)-1H-benzo[d]imidazol-2(3H)-ylidene)benzamide]	100 to 1000 nM	≤ 100 nM
O=C(/N=c1\[nH]c2cc(-n3ncccc3=O)ccc2n1CCCO)c1cccc(C(F)(F)F)c1 [Example 201, (E)-N-(1-(3-hydroxypropyl)-5-(6-oxopyridazin-1(6H)-yl)-1H-benzo[d]imidazol-2(3H)-ylidene)-3-(trifluoromethyl)benzamide]	≤ 100 nM	≤ 100 nM
O=C(/N=c1\[nH]c2cc(N3CCOCC3=O)ccc2n1C1CCCCC1)c1cccc(C(F)(F)F)c1 [Compound 45, (E)-N-(1-cyclohexyl-5-(3-oxomorpholino)-1H-benzo[d]imidazol-2(3H)-ylidene)-3-(trifluoromethyl)benzamide]	> 1000 nM	100 to 1000 nM

The next lines start with the values.

IC50 [1]	IC50 [2]	SMILES
≤ 100 nM	≤ 100 nM	N#Cc1cccc(C(=O)/N=c2\[nH]c3cc(N4CCCOC4=O)ccc3n2CC2CCCCO2)c1 (centres unmarked) [Compound 161, (E)-3-cyano-N-(5-(2-oxo-1,3-oxazinan-3-yl)-1-((tetrahydro-2H-pyran-2-yl)methyl)-1H-benzo[d]imidazol-2(3H)-ylidene)benzamide]
≤ 100 nM	≤ 100 nM	Cc1cc2c(cc1N1CCOCC1=O)[nH]/c(=N\C(=O)c1cc(F)cc(C(F)(F)F)c1)n2CCCO [Compound 67, (E)-3-fluoro-N-(1-(3-hydroxypropyl)-6-methyl-5-(3-oxomorpholino)-1H-benzo[d]imidazol-2(3H)-ylidene)-5-(trifluoromethyl)benzamide]
≤ 100 nM	≤ 100 nM	O=C(/N=c1\[nH]c2cc(N3CCOCC3=O)ccc2n1CCCO)c1cccc(C(F)F)c1 [Compound 79, (E)-3-(difluoromethyl)-N-(1-(3-hydroxypropyl)-5-(3-oxomorpholino)-1H-benzo[d]imidazol-2(3H)-ylidene)benzamide]
≤ 100 nM	≤ 100 nM	O=C(/N=c1\[nH]c2cc(N3C(=O)CN(C4CC4)CC34CC4)ccc2n1CCCO)c1cccc(C(F)F)c1 [Example 198, (E)-N-(5-(7-cyclopropyl-5-oxo-4,7-diazaspiro[2.5]octan-4-yl)-1-(3-hydroxypropyl)-1H-benzo[d]imidazol-2(3H)-ylidene)-3-(difluoromethyl)benzamide]
≤ 100 nM	≤ 100 nM	N#Cc1cccc(C(=O)/N=c2\[nH]c3cc(N4CCOCC4=O)ccc3n2[C@H]2CC[C@H](O)CC2)c1 [Compound 27, trans-(E)-3-cyano-N-(1-(4-hydroxycyclohexyl)-5-(3-oxomorpholino)-1H-benzo[d]imidazol-2(3H)-ylidene)benzamide]
≤ 100 nM	≤ 100 nM	O=C(/N=c1\[nH]c2cc(N3CCN(C4CC4)CC3=O)ccc2n1CCCO)c1cccc(C(F)(F)F)c1 [Compound 183, (E)-N-(5-(4-cyclopropyl-2-oxopiperazin-1-yl)-1-(3-hydroxypropyl)-1H-benzo[d]imidazol-2(3H)-ylidene)-3-(trifluoromethyl)benzamide]
≤ 100 nM	≤ 100 nM	O=C(/N=c1\[nH]c2cc(N3CCCOC3=O)ccc2n1CCCO)c1cccc(C(F)(F)F)c1 [Compound 33, (E)-N-(1-(3-hydroxypropyl)-5-(2-oxo-1,3-oxazinan-3-yl)-1H-benzo[d]imidazol-2(3H)-ylidene)-3-(trifluoromethyl)benzamide]
≤ 100 nM	≤ 100 nM	CS(=O)(=O)c1cccc(C(=O)/N=c2\[nH]c3cc(N4CCOCC4=O)ccc3n2[C@H]2CC[C@H](O)CC2)c1 [Compound 31, trans-(E)-N-(1-(4-hydroxycyclohexyl)-5-(3-oxomorpholino)-1H-benzo[d]imidazol-2(3H)-ylidene)-3-(methylsulfonyl)benzamide]
≤ 100 nM	≤ 100 nM	O=C(/N=c1\[nH]c2cc(N3CCOCC3=O)ccc2n1[C@H]1CC[C@@H](O)CC1)c1cccc(C(F)(F)F)c1 [Compound 57, cis-(E)-N-(1-(4-hydroxycyclohexyl)-5-(3-oxomorpholino)-1H-benzo[d]imidazol-2(3H)-ylidene)-3-(trifluoromethyl)benzamide]
≤ 100 nM	≤ 100 nM	O=C(/N=c1\[nH]c2cc(N3CCSCC3=O)ccc2n1CCCO)c1cccc(C(F)F)c1 [Compound 187, (E)-3-(difluoromethyl)-N-(1-(3-hydroxypropyl)-5-(3-oxothiomorpholino)-1H-benzo[d]imidazol-2(3H)-ylidene)benzamide]
